Experimental data published in US20240207302A1, “ANTIVIRAL COMPOUNDS, METHODS FOR THE MANUFACTURING OF COMPOUNDS, ANTIVIRAL PHARMACEUTICAL COMPOSITION, USE OF THE COMPOUNDS AND METHOD FOR THE ORAL TREATMENT OF CORONAVIRUS INFECTION AND RELATED DISEASES THEREOF” (priority 2021, published 2024).

Tests used:
TNF-α and IL-6 = TNF-α and IL-6 levels in supernatant of SARS-COV-2-infected human primary monocytes; type: cell-based; settings: 24 h
Experimental: FIG. 5A, 5B and 5C. The compounds impair SARS-COV-2 RNA synthesis and SARS-COV-2-induced release of inflammatory mediators in human primary monocytes.
Human primary monocytes were obtained after 3 h of plastic adherence of peripheral blood mononuclear cells (PBMCs). PBMCs were isolated from healthy donors by density gradient centrifugation (Ficoll-Paque, GE Healthcare). PBMCs (2.0×10^6 cells) were plated onto 48-well plates (NalgeNunc) in RPMI-1640 without serum for 2 to 4 h. Non-adherent cells were removed, and the remaining monocytes were maintained in DMEM with 5% human serum (HS; Millipore) and penicillin/streptomycin. Monocytes were infected at MOI of 0.1. After 1 h inoculation period, cells were washed with phosphate saline buffer (PBS) to remove unbounded viruses and treated with 1 μM of the indicated compounds. After 24 h after infection, cell monolayers werc lysed total viral RNA was extracted, quantitative RT-PCR was performed, to detect the SARS-COV-2 and the housekeeping gene RNAse P.

SARS-COV-2 viral RNA = assay: Immunoprecipitation of viral RNA with anti-kinetin antibody, RT-PCR; type: cell-based; settings: SARS-COV-2-infected calu-3 cells

## c1coc(CNc2ncnc3[nH]cnc23)c1 [MB-905, kinetin]
TNF-α and IL-6
  SARS-CoV-2-induced enhancement of IL-6 levels in culture supernatant: reduced
  SARS-CoV-2-induced enhancement of TNF-α levels in culture supernatant: reduced
SARS-COV-2 viral RNA
  levels of N6-furfuryladenine in viral RNA vs isotype control and nil-treated cells: more than 10 fold
